Measured values as given in PubChem BioAssay AID2060897 (Molecular Pharmacology Branch, DTP, NCI, 2025).

Tested on: 966289-007-R4-J1-PDC complex spheroid viability
Assay: Anticancer human tumor 966289-007-R4-J1-PDC patient-derived pancreatic adenocarcinoma cell line growth inhibition [RAS]
Conditions: for viability, T/C: stronger effect = lower value
In short: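 Tumour cells grown as complex spheroids with HUVEC endothelial cells and mesenchymal stem cells, treated with RAS pathway inhibitor combinations. Each agent spans half-log steps from near clinical Cmax, or 10 microM where Cmax is unknown.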

[1] = curve of first compound, second compound 0.0316 µM
[2] = curve of first compound, second compound 0.1 µM
[3] = curve of first compound, second compound 0.316 µM
[4] = curve of first compound, second compound 1 µM
[5] = second compound 0.0316 µM, first compound 0.00316 µM
[6] = second compound 0.0316 µM, first compound 0.01 µM
[7] = second compound 0.0316 µM, first compound 0.0316 µM
[8] = second compound 0.0316 µM, first compound 0.1 µM
[9] = second compound 0.0316 µM, first compound 0.316 µM
[10] = second compound 0.0316 µM, first compound 1 µM
[11] = second compound 0.1 µM, first compound 0.00316 µM
[12] = second compound 0.1 µM, first compound 0.01 µM
[13] = second compound 0.1 µM, first compound 0.0316 µM
[14] = second compound 0.1 µM, first compound 0.1 µM
[15] = second compound 0.1 µM, first compound 0.316 µM
[16] = second compound 0.1 µM, first compound 1 µM
[17] = second compound 0.316 µM, first compound 0.00316 µM
[18] = second compound 0.316 µM, first compound 0.01 µM
[19] = second compound 0.316 µM, first compound 0.0316 µM
[20] = second compound 0.316 µM, first compound 0.1 µM
[21] = second compound 0.316 µM, first compound 0.316 µM
[22] = second compound 0.316 µM, first compound 1 µM
[23] = second compound 1 µM, first compound 0.00316 µM
[24] = second compound 1 µM, first compound 0.01 µM
[25] = second compound 1 µM, first compound 0.0316 µM
[26] = second compound 1 µM, first compound 0.1 µM
[27] = second compound 1 µM, first compound 0.316 µM
[28] = second compound 1 µM, first compound 1 µM
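Also: spheroids exposed to agents for one week before readout.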
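For viability, T/C in this document: percent viability relative to DMSO vehicle control wells as 100%.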

Nc1ccn(C2OC(CO)C(O)C2(F)F)c(=O)n1 (centres undefined) + C=CC(=O)N1CCN(c2nc(OCC3CCCN3C)nc3c(F)c(-c4nc(N)cc(C)c4C(F)(F)F)c(Cl)cc23)C(C)C1
IC50 (curve of first compound, second compound 0.00316 µM): 6.89 nM | IC50 (curve of first compound, second compound 0.01 µM): 8.14 nM | IC50 [1]: 6.88 nM | IC50 [2]: 6.58 nM | IC50 [3]: 6.55 nM | IC50 [4]: 6.83 nM | viability, T/C (second compound 0.00316 µM, first compound 0.00316 µM): 108% | viability, T/C (second compound 0.00316 µM, first compound 0.01 µM): 22.2% | viability, T/C (second compound 0.00316 µM, first compound 0.0316 µM): 1.32% | viability, T/C (second compound 0.00316 µM, first compound 0.1 µM): 1.25% | viability, T/C (second compound 0.00316 µM, first compound 0.316 µM): 1.36% | viability, T/C (second compound 0.00316 µM, first compound 1 µM): 1.34% | viability, T/C (second compound 0.01 µM, first compound 0.00316 µM): 113% | viability, T/C (second compound 0.01 µM, first compound 0.01 µM): 36.4% | viability, T/C (second compound 0.01 µM, first compound 0.0316 µM): 1.5% | viability, T/C (second compound 0.01 µM, first compound 0.1 µM): 1.37% | viability, T/C (second compound 0.01 µM, first compound 0.316 µM): 1.44% | viability, T/C (second compound 0.01 µM, first compound 1 µM): 1.42% | viability, T/C [5]: 100% | viability, T/C [6]: 25.8% | viability, T/C [7]: 1.29% | viability, T/C [8]: 1.37% | viability, T/C [9]: 1.47% | viability, T/C [10]: 1.19% | viability, T/C [11]: 89.6% | viability, T/C [12]: 27.3% | viability, T/C [13]: 1.5% | viability, T/C [14]: 1.39% | viability, T/C [15]: 1.15% | viability, T/C [16]: 1.1% | viability, T/C [17]: 93.6% | viability, T/C [18]: 24.8% | viability, T/C [19]: 1.51% | viability, T/C [20]: 1.29% | viability, T/C [21]: 1.52% | viability, T/C [22]: 1.25% | viability, T/C [23]: 93.5% | viability, T/C [24]: 28.4% | viability, T/C [25]: 1.78% | viability, T/C [26]: 1.63% | viability, T/C [27]: 1.74% | viability, T/C [28]: 1.61%

CCN1CCN(Cc2ccc(Nc3ncc(F)c(-c4cc(F)c5nc(C)n(C(C)C)c5c4)n3)nc2)CC1
viability, T/C (compound 0.00316 µM): 113% [middle of 4 runs] | viability, T/C (compound 0.01 µM): 100% [middle of 4 runs] | viability, T/C (compound 0.316 µM): 94.4% [middle of 4 runs] | viability, T/C (compound 1 µM): 84% [middle of 4 runs] | IC50 (curve of compound): > 1000 nM

C=CC(=O)N1CCN(c2nc(OCC3CCCN3C)nc3c(F)c(-c4nc(N)cc(C)c4C(F)(F)F)c(Cl)cc23)C(C)C1 (centres undefined) + C#Cc1c(F)ccc2cc(O)cc(-c3ncc4c(N5CC6CCC(C5)N6)nc(OCC56CCCN5CC(F)C6)nc4c3F)c12
IC50 [1]: > 1000 nM | IC50 [2]: > 1000 nM | IC50 [3]: > 1000 nM | IC50 [4]: > 1000 nM | IC50 (curve of first compound, second compound 3.16 µM): > 1000 nM | IC50 (curve of first compound, second compound 10 µM): > 1000 nM | viability, T/C [5]: 106% | viability, T/C [6]: 99.5% | viability, T/C [7]: 88.7% | viability, T/C [8]: 98.2% | viability, T/C [9]: 108% | viability, T/C [10]: 91.5% | viability, T/C [11]: 108% | viability, T/C [12]: 107% | viability, T/C [13]: 91.1% | viability, T/C [14]: 95.9% | viability, T/C [15]: 83.8% | viability, T/C [16]: 83.3% | viability, T/C [17]: 105% | viability, T/C [18]: 99.5% | viability, T/C [19]: 102% | viability, T/C [20]: 99.7% | viability, T/C [21]: 97% | viability, T/C [22]: 80.7% | viability, T/C [23]: 97% | viability, T/C [24]: 111% | viability, T/C [25]: 117% | viability, T/C [26]: 103% | viability, T/C [27]: 92.5% | viability, T/C [28]: 96.8% | viability, T/C (second compound 3.16 µM, first compound 0.00316 µM): 96.9% | viability, T/C (second compound 3.16 µM, first compound 0.01 µM): 107% | viability, T/C (second compound 3.16 µM, first compound 0.0316 µM): 113% | viability, T/C (second compound 3.16 µM, first compound 0.1 µM): 102% | viability, T/C (second compound 3.16 µM, first compound 0.316 µM): 110% | viability, T/C (second compound 3.16 µM, first compound 1 µM): 92.7% | viability, T/C (second compound 10 µM, first compound 0.00316 µM): 118% | viability, T/C (second compound 10 µM, first compound 0.01 µM): 82.8% | viability, T/C (second compound 10 µM, first compound 0.0316 µM): 91.6% | viability, T/C (second compound 10 µM, first compound 0.1 µM): 96.4% | viability, T/C (second compound 10 µM, first compound 0.316 µM): 89.9% | viability, T/C (second compound 10 µM, first compound 1 µM): 92.2%
